{
  "source": "patent US20240156757A1",
  "about": "“CXCL8 INHIBITOR AND PHARMACEUTICAL COMPOSITION THEREOF FOR USE IN THE TREATMENT OF SEIZURES” (DOMPE' FARMACEUTICI SPA, priority 2021, published 2024)",
  "key": {"[1]": {"tested_on": "murine model of acquired epilepsy triggered by de novo status epilepticus", "assay": "Effect of reparixin on onset and development of epilepsy (intra-amygdala kainic acid status epilepticus, EEG recording)", "assay_type": "in vivo, C57BL6/N male mice", "description": "A murine model of acquired epilepsy triggered by de novo status epilepticus was used in the experiments (lori et al, Neurobiol Dis 2017, 99 12-23).\nIn details, eight week-old C57BL6/N male mice (˜25 g; Charles River, calco, Italy) were used. Mice were maintained in SPF facilities and housed at a constant room temperature (23° c) and relative humidity (60±5%) with free access to food and water and a fixed 12 h light/dark cycle. All experimental procedures were conducted in conformity with institutional guidelines that are in compliance with national (D.L. n.26, G.U. Mar. 4, 2014) and international laws and policies (EEC council directive 86/609, OJ L 358, 1, Dec. 12, 1987, guide for the care and use of laboratory animals, U.S. national research council, 1996), and were reviewed and approved by the intramural ethical committee.\nMice were surgically implanted under general gas anaesthesia (1-3% isoflurane in O2) and stereotaxic guidance. A 23-gauge guide cannula was unilaterally positioned on top of the dura mater for the intra-amygdala injection of kainic acid (KA) (from bregma, mm: nose bar 0; anteroposterior, −0.9; lateral, −3.1) in accordance with lori et al. (2017).\nFor seizure recording, a nichrome-insulated bipolar depth electrode (60 μm OD) was implanted in the dorsal hippocampus (from bregma, mm: nose bar 0; anteroposterior—1.8, lateral 1.4 and 1.8 below dura mater) contralateral to the injected amygdala and a cortical electrode was placed onto the somatosensory cortex in the ipsilateral hemisphere. Finally, two screw electrodes were positioned over the nasal sinus and the cerebellum, and used as ground and reference electrodes, respectively. Electrodes were connected to a multipin socket and secured to the skull by acrylic dental cement.\nMinipumps (Alzet pump 1007D, 100 μ/minipump or Alzet pump 2002, 200 μ/minipump; Charles River, Calco, Italy) filled with reparixin dissolved in a vehicle consisting in sterile saline (NaCl 0.9%) solution (vehicle) (reparixin group) or vehicle (sham control group and vehicle group) were implanted subcutaneously in the back of the mice. Briefly, a small incision was made in the skin between the scapulae and a pocket was formed by spreading apart the connective tissues. After minipump positioning, the skin was carefully sutured to avoid any discomfort to the animal.\nOne week after surgery, mice were connected to the EEG set up (TWIN EEG recording system connected with a comet AS-40 32/8 amplifier:sampling rate 400 hz, high-pass filter 0.3 hz, low-pass filter 70 hz, sensitivity 2000 my/cm; Grass-telefactor, West Warwick, USA) in order to record an EEG baseline before the induction of status epilepticus (SE). […]\nReparixin, at the dose of 7.5 mg/h/kg (reparixin group), or vehicle (sham and vehicle group) were administered by continuous infusion using osmotic minipumps as described in example 1b).\nAfter 24 hours from infusion, status epilepticus was induced in the vehicle group and reparixin group by amygdal injection of kaininc acid.\nIn details, kainic acid (KA, 0.3 μg in 0.2 μl; Sigma-Aldrich, S. Louis, USA) was dissolved in […] phosphate-buffered saline (PBS, pH 7.4) and injected into the right basolateral amygdala in freely moving mice using a needle protruding 4.1 mm below the implanted cannula in order to evoke SE. SE was defined by the appearance of continuous spike activity with a frequency>1 Hz intermixed with high amplitude and frequency discharges lasting for at least 5 s, with a frequency of >8 Hz. […]"}, "acetylated alpha-tubulin": {"tested_on": "acetylated alpha-tubulin", "assay": "Acetylated alpha-tubulin immunostaining in hippocampus after SE", "assay_type": "in vivo, C57BL6/N male mice", "details": "as assessed 48 h and 72 h after SE; 7.5 mg/h/kg minipump; reparixin n=7, vehicle n=4", "description": "(§1) A cohort of animals was prepared in accordance to Example 1 to study the effects of reparixin on the acetylated alpha-tubulin, a pharmacodynamic marker of drug's neuroprotective effect, and on degenerating neurons, as identified by Fluoro-Jade staining.\n(§2) vehicle group (n=6) and reparixin group (n=7). Sham mice (implanted with electrodes but not exposed to SE) were used as controls (n=6).\n(§3) The animals of the different groups were treated as described in Example 2.\n[…] Brains were post-fixed for 90 min in 4% PFA in PBS at 4° C., then transferred to 20% sucrose in PBS overnight at 4° C. and then frozen in n-pentane for 3 min at −43° C. and stored at −80° C. until assay. Serial coronal sections (40 μm) were cut on a cryostat throughout the extension of the hippocampus (from bregma −1.22 to −2.54 mm).\n(§4) Sections were processed to measure both degenerating neurons with Fluoro-Jade and acetylated alpha-tubulin (marker of microtubule stability) as described below. Three slices for each animal's brain in each experimental group/marker were matched for anteroposterior level and processed.\nSlices were blocked for 30 min at 4° C. in blocking buffer (0.1% Triton-X100, 3% BSA in PBS; Invitrogen) then incubated with primary antibody against acetylated alpha-tubuline 1:2000 (#24610 Abcam) overnight at 4 C. […]"}, "[2]": {"tested_on": "chronic epileptic mice with established spontaneous seizures", "assay": "Effect of reparixin on established seizures in chronic epileptic mice", "assay_type": "in vivo", "description": "The objective of this experiment was to assess whether reparixin affects seizure frequency or duration in chronic epileptic mice with established spontaneous seizures. Status epilepticus was induced in 18 mice prepared as described in Example 1a) by amygdala injection of kainic acid and EEG was recorded for 14 days to determine disease onset as described in Example 2. Then, mice were disconnected from EEG and returned to their home cages until day 45 at which time they were again EEG recorded for 14 days to determine their individual baseline of spontaneous seizures. At the end of this period, mice were temporarly disconnected for minipumps implantation. Minipumps (ALZET model 2002; 0.5 μl/h) were filled with Reparixin (7.5/mg/h/kg, n=9) or its vehicle (n=9) according to the manifacturer's instructions and implanted subcutaneously in the back of the mice under general gas anaesthesia (1-3% isoflurane in O2). Upon awakening from anesthesia, mice were returned to their home cages for monitoring the EEG for additional 14 days during treatment. At the end of treatment period (as determined by minipump exhaustion) venous blood was collected from the cheek and plasma was isolated for drug level measurement. Mice were subsequently monitored during a drug wash-out period of 14 days. A group of sham mice (not exposed to SE but handled as experimental mice) were implanted with minipumps filled with vehicle (n=6)."}, "[3]": {"tested_on": "Fluoro-Jade-positive degenerating neurons", "assay": "Fluoro-Jade staining of degenerating neurons in hippocampus after SE", "assay_type": "in vivo, C57BL6/N male mice", "details": "72 h post-SE", "description": "as §1, §2, §3\nAll mice were transcardially perfused 72 h post-SE with ice-cold phosphate buffered saline (PBS, pH 7.4), followed by 4% paraformaldehyde (PFA) in PBS. Brains were post-fixed for 90 min in 4% PFA in PBS at 4° C., then transferred to 20% sucrose in PBS overnight at 4° C. and then frozen in n-pentane for 3 min at −43° C. and stored at −80° C. until assay. Serial coronal sections (40 μm) were cut on a cryostat throughout the extension of the hippocampus (from bregma −1.22 to −2.54 mm).\nas §4\nLabeling was carried out as previously described (Ravizza et al., 2008). Briefly, sections were dried in ethanol (100%, 75% and 50%) and rehydrated in distilled water. […]"}},
  "data": [
    {"smiles": "CC(C)Cc1ccc([C@@H](C)C(=O)NS(C)(=O)=O)cc1", "note": "[reparixin, R-(-)-2-(4-isobutylphenyl)propionyl methansulfonamide]", "values": [
      {"measurement": "onset time of SE", "setting": "[1]; 7.5 mg/h/kg continuous s.c. minipump infusion started 24 h before kainic acid, vs vehicle group, n=24/group", "value": "did not modify"},
      {"measurement": "onset of spontaneous seizures (epilepsy onset, Kaplan-Meyer curve)", "setting": "[1]; 7.5 mg/h/kg minipump for 7 days post-SE, p<0.05 Log-rank test vs vehicle", "value": "significant delay"},
      {"measurement": "incidence of acute symptomatic seizures during 48 h post-SE", "setting": "[1]; 7.5 mg/h/kg minipump, all animals exposed to SE, p<0.05 by Fisher's test vs vehicle (62% of mice)", "value": "20 % of mice"},
      {"measurement": "number of spontaneous recurrent seizures (SRS) during drug treatment", "setting": "[1]; 48 h-7 d post-SE, vs vehicle group, p<0.05 Mann-Whitney test", "value": "significant reduction"},
      {"measurement": "mice that died during epilepsy development", "setting": "[1]; reparixin group n=9, vehicle group 3 out of 12 died because of severe seizures", "value": "1 out of 9"},
      {"measurement": "immunohistochemical signal of acetylated alpha-tubulin in the mouse hippocampus", "setting": "acetylated alpha-tubulin", "value": "significantly reduced"},
      {"measurement": "average SRS duration", "setting": "[2]; 7.5 mg/h/kg s.c. minipump for 14 days, n=9", "value": "not modified"},
      {"measurement": "reduction of the number of spontaneous seizures compared to pre-injection baseline", "setting": "[2]; 7.5 mg/h/kg s.c. minipump for 14 days, n=9, p<0.05 one-way ANOVA, Tukey's test", "value": "about 50%"},
      {"measurement": "responders (at least 30% seizure reduction during treatment vs pre-treatment baseline)", "setting": "[2]; 7.5 mg/h/kg s.c. minipump for 14 days, waterfall plot", "value": "7 out of 9"},
      {"measurement": "number of seizures upon drug discontinuation", "setting": "[2]; drug wash-out period of 14 days", "value": "returned to pre-injection baseline level"},
      {"measurement": "mice without Fluoro-Jade positive neurons in CA4", "setting": "[3]; vehicle 1 out of 5 without neurodegeneration, p=0.29 by Fisher test", "value": "4 out of 7"},
      {"measurement": "mice without Fluoro-Jade positive neurons in CA1 pyramidal cell layer", "setting": "[3]; vehicle 5 out of 5 showed neurodegeneration, p<0.05 by Fisher test", "value": "5 out of 7"}
    ]}
  ]
}
